Experimental data from PubChem BioAssay AID248 (DTP/NCI, 2004).
Inconclusive results and toxic doses are left out. No stated cut-off is given here; in the data, active means T/C of 150% or more; inactive means T/C below 125%.

Tested on: L1210 leukemia ip in BDF1 mice, survival T/C
Assay: NCI In Vivo Anticancer Drug Screen. Data for tumor model L1210 Leukemia (intraperitoneal) in B6D2F1 (BDF1) mice
Settings: endpoint: mean survival time, higher = longer survival
Summary of the method: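 Tumor cells were implanted, animals were treated, and survival was followed. The result divides the treated measurement by the vehicle-control measurement.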

[1] = dose: 100.0 mg/kg/injection, schedule: Q01DX009 (ip), vehicle: Klucel (hydroxypropylcellulose) (HPC)
[2] = dose: 100.0 mg/kg/injection, schedule: Q04DX003 (ip), vehicle: Klucel (hydroxypropylcellulose) (HPC)
[3] = dose: 200.0 mg/kg/injection, schedule: Q01DX009 (ip), vehicle: Klucel (hydroxypropylcellulose) (HPC)
[4] = dose: 200.0 mg/kg/injection, schedule: Q04DX003 (ip), vehicle: Klucel (hydroxypropylcellulose) (HPC)
[5] = dose: 200.0 mg/kg/injection, schedule: Q01DX009 (ip), vehicle: saline with Tween-80
[6] = dose: 50.0 mg/kg/injection, schedule: Q01DX001 (ip), vehicle: saline
[7] = dose: 400.0 mg/kg/injection, schedule: Q01DX009 (ip), vehicle: Klucel (hydroxypropylcellulose) (HPC)
[8] = dose: 400.0 mg/kg/injection, schedule: Q04DX003 (ip), vehicle: Klucel (hydroxypropylcellulose) (HPC)

Measured: T/C

O=C(O)C1C2C=CC(C2)C1(C(=O)O)c1ccccc1 (stereo not given)
inactive: dose: 100.0 mg/kg/injection, schedule: Q01DX001 (ip), vehicle: carboxymethylcellulose (CMC) 95 % of control | dose: 100.0 mg/kg/injection, schedule: Q04DX003 (ip), vehicle: carboxymethylcellulose (CMC) 98 % of control | dose: 200.0 mg/kg/injection, schedule: Q01DX001 (ip), vehicle: carboxymethylcellulose (CMC) 95 % of control | dose: 200.0 mg/kg/injection, schedule: Q04DX003 (ip), vehicle: carboxymethylcellulose (CMC) 92 % of control

CN1CC(=O)n2c(cc3ccccc32)C1=O
inactive: dose: 100.0 mg/kg/injection, schedule: Q04DX002 (ip), vehicle: saline 110 % of control | dose: 400.0 mg/kg/injection, schedule: Q04DX002 (ip), vehicle: saline 105 % of control

C=CCOP(=O)(OCC=C)OCC=C
inactive: dose: 50.0 mg/kg/injection, schedule: Q01DX009 (ip), vehicle: Klucel (hydroxypropylcellulose) (HPC) 97 % of control | dose: 50.0 mg/kg/injection, schedule: Q04DX003 (ip), vehicle: Klucel (hydroxypropylcellulose) (HPC) 99 % of control | [1] 97 % of control | [2] 91 % of control | [3] 98 % of control | [4] 93 % of control

N#CCCCCCCN=[N+]=[N-]
inactive: dose: 37.5 mg/kg/injection, schedule: Q04DX003 (ip), vehicle: saline 106 % of control | dose: 75.0 mg/kg/injection, schedule: Q04DX003 (ip), vehicle: saline 101 % of control | dose: 150.0 mg/kg/injection, schedule: Q04DX003 (ip), vehicle: saline 102 % of control

OC1C2CC3CC(C2)CC1C3 (stereo not given)
inactive: dose: 100.0 mg/kg/injection, schedule: Q04DX002 (ip), vehicle: Klucel (hydroxypropylcellulose) (HPC) 102 % of control | dose: 200.0 mg/kg/injection, schedule: Q04DX002 (ip), vehicle: Klucel (hydroxypropylcellulose) (HPC) 98 % of control | dose: 400.0 mg/kg/injection, schedule: Q04DX002 (ip), vehicle: Klucel (hydroxypropylcellulose) (HPC) 94 % of control

O=S(=O)(NOCCCCONS(=O)(=O)c1ccccc1)c1ccccc1
inactive: dose: 100.0 mg/kg/injection, schedule: Q01DX001 (ip), vehicle: saline with Tween-80 88 % of control | dose: 200.0 mg/kg/injection, schedule: Q01DX001 (ip), vehicle: saline with Tween-80 95 % of control | dose: 400.0 mg/kg/injection, schedule: Q01DX001 (ip), vehicle: saline with Tween-80 97 % of control

O=C1C(=O)C2=C(NCCC2)C(O)=C1Cl
inactive: dose: 100.0 mg/kg/injection, schedule: Q01DX001 (ip), vehicle: water 93 % of control | dose: 200.0 mg/kg/injection, schedule: Q01DX001 (ip), vehicle: water 95 % of control | dose: 400.0 mg/kg/injection, schedule: Q01DX001 (ip), vehicle: water 98 % of control

CCCOP(=S)(NCCOC)OCCC
inactive: dose: 100.0 mg/kg/injection, schedule: Q01DX009 (ip), vehicle: saline with Tween-80 97 % of control | [5] 100 % of control | dose: 400.0 mg/kg/injection, schedule: Q01DX009 (ip), vehicle: saline with Tween-80 89 % of control

CC(C)NC(C)Cc1ccccc1 (stereo not given)
inactive: dose: 25.0 mg/kg/injection, schedule: Q01DX001 (ip), vehicle: saline 93 % of control | [6] 91 % of control

O=C(Nc1ccccc1Cl)Oc1ccccc1Cc1ccccc1
inactive: [1] 96 % of control | [2] 107 % of control | [3] 93 % of control | [4] 90 % of control | [7] 115 % of control | [8] 93 % of control

CCN(CC)CCNc1ccc(N=Nc2cnc3ccccc3c2)c2ccccc12
inactive: dose: 1.12 mg/kg/injection, schedule: Q01DX009 (ip), vehicle: other 98 % of control | dose: 2.25 mg/kg/injection, schedule: Q01DX009 (ip), vehicle: other 92 % of control | dose: 4.5 mg/kg/injection, schedule: Q01DX009 (ip), vehicle: other 93 % of control | dose: 9.0 mg/kg/injection, schedule: Q01DX009 (ip), vehicle: other 97 % of control | dose: 100.0 mg/kg/injection, schedule: Q01DX001 (ip), vehicle: other 91 % of control | dose: 200.0 mg/kg/injection, schedule: Q01DX001 (ip), vehicle: other 91 % of control | dose: 400.0 mg/kg/injection, schedule: Q01DX001 (ip), vehicle: other 97 % of control

COc1nc(=O)n(C2CCCO2)cc1C (stereo not given)
inactive: [6] 95 % of control | dose: 100.0 mg/kg/injection, schedule: Q01DX001 (ip), vehicle: saline 95 % of control | dose: 200.0 mg/kg/injection, schedule: Q01DX001 (ip), vehicle: saline 104 % of control | dose: 400.0 mg/kg/injection, schedule: Q01DX001 (ip), vehicle: saline 98 % of control

COc1ccc2c(c1O)C13CCN(C)C(C2)C1CCC(O)C3 (stereo not given)
inactive: [1] 95 % of control | [2] 104 % of control | [3] 101 % of control | [4] 88 % of control | [7] 98 % of control | [8] 86 % of control

CN(C)c1ccc(/C=N/NC(=O)c2ccccc2NC(=O)c2ccccc2)cc1
inactive: [1] 89 % of control | [3] 100 % of control | [7] 89 % of control

c1cnc2c(c1)CCCC2
inactive: dose: 50.0 mg/kg/injection, schedule: Q01DX009 (ip), vehicle: saline with Tween-80 86 % of control | [5] 86 % of control

CCCCCCC(C)OC(=O)CCCc1ccc(N(CCCl)CCCl)cc1 (stereo not given)
inactive: dose: 50.0 mg/kg/injection, schedule: Q01DX009 (ip), vehicle: saline 122 % of control | dose: 100.0 mg/kg/injection, schedule: Q01DX009 (ip), vehicle: saline 116 % of control | dose: 400.0 mg/kg/injection, schedule: Q01DX009 (ip), vehicle: saline 100 % of control

Fc1ccc2[nH]c3c(c2c1)C[P+](Cc1cccc2ccccc12)(c1ccccc1)CC3 (stereo not given)
inactive: dose: 100.0 mg/kg/injection, schedule: Q04DX003 (ip), vehicle: saline 98 % of control | dose: 200.0 mg/kg/injection, schedule: Q04DX003 (ip), vehicle: saline 88 % of control

O=C1OCC(O)(c2ccccc2)C1c1ccccc1 (stereo not given)
inactive: dose: 55.0 mg/kg/injection, schedule: Q01DX Z (ip), vehicle: methylcellulose (MC) 98 % of control | dose: 83.0 mg/kg/injection, schedule: Q01DX Z (ip), vehicle: methylcellulose (MC) 118 % of control | dose: 125.0 mg/kg/injection, schedule: Q01DX Z (ip), vehicle: methylcellulose (MC) 104 % of control
